Converted amounts (≈) assume the structure as drawn.
Key:
[1] = Approximate solubility in various solvents; assay type: physicochemical; settings: for Solubility: approximate
Description: In addition, the lower melting point polymorph, Form II, also has significant advantages over the polymorphic mixture of Compound 1 as prepared according to known techniques. […] Form II is generally more soluble in polar and protic solvents than is Form I. Enhanced solubility of a compound will generally increase the bioavailability of that compound. When absorption of a drug is dissolution rate limited, use of the more soluble and faster dissolving form improves the rate and extent of bioavailability.

[2] = Physical (polymorphic) stability of the solid form; assay type: physicochemical; settings: in words, compared with the polymorphic mixture of Compound 1; stability toward conversion to a different polymorphic form
Description: The polymorph Form I is considered a heat stable form of Compound 1. By "heat stable" or ''physically stable" is meant that the Form I is stable toward conversion to the polymorph Form II; although, it may be labile toward degradation to other compounds.
As the higher melting point polymorph, Form I has significant advantages over the polymorphic mixture of Compound 1 prepared according to known techniques. […] This, in turn, enhances the milling and compaction properties of the drug substance.

Structure (SMILES)	Solubility ([1]; Acetone)	Solubility ([1]; Acetonitrile)	Solubility ([1]; De-ionized water)	Solubility ([1]; Diethyl ether)	Solubility ([1]; Ethanol, absolute (100%))	Solubility ([1]; Ethyl acetate)	Solubility ([1]; Hexane)	Solubility ([1]; Isopropanol)	Solubility ([1]; Methanol)	Solubility ([1]; Polyethylene Glycol 400, NF)	Solubility ([1]; Tetrahydrofuran)	Solubility ([1]; Toluene)	physical stability [2]	solubility in a range of organic solvents ([1]; in words, compared with Form I)	water solubility ([1]; in words, compared with Form I)
CC(=O)N(C)c1cccc(-c2ccnc3c(C(=O)c4cccs4)cnn23)c1 [Form I, N-methyl-N-(3-{3-[2-thienylcarbonyl]-pyrazol-[1,5-α]-pyrimidin-7-yl}phenyl)acetamide]	4.842 mg/mL (≈ 12.9 mM)	6.246 mg/mL (≈ 16.6 mM)	0.0083 mg/mL (≈ 0.022 mM)	0.08 mg/mL (≈ 0.213 mM)	1.426 mg/mL (≈ 3.79 mM)	1.6 mg/mL (≈ 4.25 mM)	0.041 mg/mL (≈ 0.109 mM)	0.441 mg/mL (≈ 1.17 mM)	1.74 mg/mL (≈ 4.62 mM)	3.259 mg/mL (≈ 8.66 mM)	9.964 mg/mL (≈ 26.5 mM)	0.997 mg/mL (≈ 2.65 mM)	superior physical stability	–	–
CC(=O)N(C)c1cccc(-c2ccnc3c(C(=O)c4cccs4)cnn23)c1 [Form II, N-methyl-N-(3-{3-[2-thienylcarbonyl]-pyrazol-[1,5-α]-pyrimidin-7-yl}phenyl)acetamide]	6.873 mg/mL (≈ 18.3 mM)	8.928 mg/mL (≈ 23.7 mM)	0.0188 mg/mL (≈ 0.0499 mM)	0.051 mg/mL (≈ 0.135 mM)	1.722 mg/mL (≈ 4.57 mM)	2.16 mg/mL (≈ 5.74 mM)	0.05 mg/mL (≈ 0.133 mM)	0.457 mg/mL (≈ 1.21 mM)	1.915 mg/mL (≈ 5.09 mM)	10.1 mg/mL (≈ 26.8 mM)	14.74 mg/mL (≈ 39.2 mM)	0.645 mg/mL (≈ 1.71 mM)	–	generally greater solubility in a range of organic solvents as compared to Form I	superior water solubility over Form I

From patent EP1477169A1, “Reactions of polymorphs of N-methyl-N-(3-(3-(2-thienylcarbonyl)-pyrazol-(1,5-alpha)-pyrimidin-7-yl)phenyl)acetamide” (Neurocrine Biosciences, Inc., priority 1999, dated 2001)
